Assay results reported in patent US20260226068A1, “IMIDAZOTRIAZINE IL-17A MODULATORS AND USES THEREOF” (DICE ALPHA, INC., priority 2023, published 2026).

Key:
IL-17A/A = target: T1, IL-17A/A (Homo sapiens, UniProt Q16552); assay: IL-17A/A HEK-Blue cell assay (SEAP reporter); assay type: cell-based; details: HEK-Blue IL-17A reporter cells, IL17A/A 5 ng/mL, 20 hours, SEAP read at A630; read-out: HEK-Blue IL17AA (IC50 for IL-17A/A inhibition)
T1 construct: purchased Genscript Z03228
T1 sequence (Q16552 24-155): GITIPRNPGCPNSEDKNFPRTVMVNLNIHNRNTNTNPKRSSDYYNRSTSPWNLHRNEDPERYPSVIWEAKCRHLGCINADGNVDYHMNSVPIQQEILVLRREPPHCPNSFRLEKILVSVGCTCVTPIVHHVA

IL-17A/F = target: T2, IL-17A/F (Homo sapiens, UniProt Q16552+Q96PD4); assay: IL-17A/F HEK-Blue cell assay (SEAP reporter); assay type: cell-based; details: HEK-Blue IL-17A reporter cells, IL17A/F 5 ng/mL, 20 hours, SEAP read at A630; read-out: HEK-Blue IL17AF (IC50 for IL-17A/F inhibition)
T2 construct: purchased R&D Systems
T2 sequence (Q16552 24-155): T1 sequence (Q16552 24-155)
T2 sequence (Q96PD4 31-163): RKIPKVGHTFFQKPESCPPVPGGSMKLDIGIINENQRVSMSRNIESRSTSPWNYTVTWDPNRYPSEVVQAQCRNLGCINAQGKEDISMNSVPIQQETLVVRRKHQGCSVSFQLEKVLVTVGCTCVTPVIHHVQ

Structure (SMILES)	IC50 (IL-17A/A)	IC50 (IL-17A/F)
Cn1nccc1C(=O)N[C@H](c1cn2nc(C[C@H]3C[C@@H](C(F)(F)F)CNC3=O)c(C3CCOCC3)nc2n1)[C@H]1CCCC(F)(F)C1 [Compound 278, N—((S)—((S)-3,3-difluorocyclohexyl)(2-(((3R,5R)-2-oxo-5-(trifluoromethyl)piperidin-3-yl)methyl)-3-(tetrahydro-2H-pyran-4-yl)imidazo[1,2-b][1,2,4]triazin-6-yl)methyl)-1-methyl-1H-pyrazole-5-carboxamide]	< 0.1 µM	0.1 to 1 µM
CCn1nccc1C(=O)N[C@H](c1cn2nc(C[C@H]3CC(F)(F)CNC3=O)c(C3CCOCC3)nc2n1)C1CCC(F)(F)CC1 [Compound 279]	< 0.1 µM	> 1 µM
Cn1nccc1C(=O)N[C@H](c1cn2nc(C[C@H]3C[C@@H](C(F)(F)F)CNC3=O)c(C3(C)CCOCC3)nc2n1)C1CCC(F)(F)CC1 [Compound 280, N—((S)-(4,4-difluorocyclohexyl)(3-(4-methyltetrahydro-2H-pyran-4-yl)-2-(((3R,5R)-2-oxo-5-(trifluoromethyl)piperidin-3-yl)methyl)imidazo[1,2-b][1,2,4]triazin-6-yl)methyl)-1-methyl-1H-pyrazole-5-carboxamide]	< 0.1 µM	> 1 µM
CCn1nccc1C(=O)N[C@H](c1cn2nc(C[C@H]3C[C@@H](C(F)(F)F)CC3=O)c(C3CCOCC3)nc2n1)C(C1CC1)C1CC1 [Compound 281]	< 0.1 µM	0.1 to 1 µM
CCn1nccc1C(=O)N[C@H](c1cn2nc(C[C@H]3C[C@@H](C(F)(F)F)CNC3=O)c(N3CCO[C@H](C)C3)nc2n1)C1CCC(F)(F)CC1 [Compound 282, N—((S)-(4,4-difluorocyclohexyl)(3-((R)-2-methylmorpholino)-2-(((3R,5R)-2-oxo-5-(trifluoromethyl)piperidin-3-yl)methyl)imidazo[1,2-b][1,2,4]triazin-6-yl)methyl)-1-ethyl-1H-pyrazole-5-carboxamide]	< 0.1 µM	< 0.1 µM
CCn1nccc1C(=O)N[C@H](c1cn2nc(C[C@H]3C[C@@H](C(F)(F)F)CNC3=O)c(N3CCO[C@@H](C)C3)nc2n1)C1CCC(F)(F)CC1 [Compound 283, N—((S)-(4,4-difluorocyclohexyl)(3-((S)-2-methylmorpholino)-2-(((3R,5R)-2-oxo-5-(trifluoromethyl)piperidin-3-yl)methyl)imidazo[1,2-b][1,2,4]triazin-6-yl)methyl)-1-ethyl-1H-pyrazole-5-carboxamide]	< 0.1 µM	0.1 to 1 µM
CCn1nccc1C(=O)N[C@H](c1cn2nc(C[C@H]3C[C@@H](C(F)(F)F)CNC3=O)c([C@@H]3CCNC3)nc2n1)C1CCC(F)(F)CC1 [Compound 284, N-((1S)-(4,4-difluorocyclohexyl)(2-(((3R,5R)-2-oxo-5-(trifluoromethyl)piperidin-3-yl)methyl)-3-(pyrrolidin-3-yl)imidazo[1,2-b][1,2,4]triazin-6-yl)methyl)-1-ethyl-1H-pyrazole-5-carboxamide]	0.1 to 1 µM	> 1 µM
CCn1nccc1C(=O)N[C@H](c1cn2nc(C[C@H]3C[C@@H](C(F)(F)F)CNC3=O)c(CNC)nc2n1)C1CCC(F)(F)CC1 [Compound 286, N—((S)-(4,4-difluorocyclohexyl)(3-((methylamino)methyl)-2-(((3R,5R)-2-oxo-5-(trifluoromethyl)piperidin-3-yl)methyl)imidazo[1,2-b][1,2,4]triazin-6-yl)methyl)-1-ethyl-1H-pyrazole-5-carboxamide]	0.1 to 1 µM	> 1 µM
CCn1nccc1C(=O)N[C@H](c1cn2nc(C[C@H]3C[C@@H](C(F)(F)F)CNC3=O)c(CN(C)C)nc2n1)C1CCC(F)(F)CC1 [Compound 287, N—((S)-(4,4-difluorocyclohexyl)(3-((dimethylamino)methyl)-2-(((3R,5R)-2-oxo-5-(trifluoromethyl)piperidin-3-yl)methyl)imidazo[1,2-b][1,2,4]triazin-6-yl)methyl)-1-ethyl-1H-pyrazole-5-carboxamide]	0.1 to 1 µM	> 1 µM
CCn1nccc1C(=O)N[C@H](c1cn2nc(C[C@H]3C[C@@H](C(F)(F)F)CNC3=O)c(CN3CCCCC3)nc2n1)C1CCC(F)(F)CC1 [Compound 288, N—((S)-(4,4-difluorocyclohexyl)(2-(((3R,5R)-2-oxo-5-(trifluoromethyl)piperidin-3-yl)methyl)-3-(piperidin-1-ylmethyl)imidazo[1,2-b][1,2,4]triazin-6-yl)methyl)-1-ethyl-1H-pyrazole-5-carboxamide]	< 0.1 µM	> 1 µM
CCn1nccc1C(=O)N[C@H](c1cn2nc(C[C@H]3C[C@@H](C(F)(F)F)CNC3=O)c(C3CCOCC3)nc2n1)C1CCCCCC1 [Compound 289, N—((S)-cycloheptyl(2-(((3R,5R)-2-oxo-5-(trifluoromethyl)piperidin-3-yl)methyl)-3-(tetrahydro-2H-pyran-4-yl)imidazo[1,2-b][1,2,4]triazin-6-yl)methyl)-1-ethyl-1H-pyrazole-5-carboxamide]	< 0.1 µM	< 0.1 µM
Cn1nccc1C(=O)N[C@H](c1cn2nc(C[C@H]3C[C@@H](C(F)(F)F)CNC3=O)c(C3CCOCC3)nc2n1)C1CCCCCC1 [Compound 290, N—((S)-cycloheptyl(2-(((3R,5R)-2-oxo-5-(trifluoromethyl)piperidin-3-yl)methyl)-3-(tetrahydro-2H-pyran-4-yl)imidazo[1,2-b][1,2,4]triazin-6-yl)methyl)-1-methyl-1H-pyrazole-5-carboxamide]	< 0.1 µM	< 0.1 µM
CCn1nccc1C(=O)N[C@H](c1cn2nc(C[C@H]3C[C@@H](C(F)(F)F)CNC3=O)c(C3CCOCC3)nc2n1)[C@H]1C[C@H]2C[C@H]2C1 [Compound 292, N—((S)-((1R,3r,5S)-bicyclo[3.1.0]hexan-3-yl)(2-(((3R,5R)-2-oxo-5-(trifluoromethyl)piperidin-3-yl)methyl)-3-(tetrahydro-2H-pyran-4-yl)imidazo[1,2-b][1,2,4]triazin-6-yl)methyl)-1-ethyl-1H-pyrazole-5-carboxamide]	< 0.1 µM	> 1 µM
CCc1nc2nc([C@@H](NC(=O)c3ccnn3C)C3CCC(F)(F)CC3)cn2nc1C[C@H]1C[C@@H](C(F)(F)F)CNC1=O [Compound 295, N—((S)-(4,4-difluorocyclohexyl)(3-ethyl-2-(((3R,5R)-2-oxo-5-(trifluoromethyl)piperidin-3-yl)methyl)imidazo[1,2-b][1,2,4]triazin-6-yl)methyl)-1-methyl-1H-pyrazole-5-carboxamide]	< 0.1 µM	> 1 µM
CCn1nccc1C(=O)N[C@H](c1cn2nc(C[C@H]3C[C@@H](C(F)(F)F)CNC3=O)c(N3CCN(C)CC3)nc2n1)C1CCC(F)(F)CC1 [Compound 296, N—((S)-(4,4-difluorocyclohexyl)(3-(4-methylpiperazin-1-yl)-2-(((3R,5R)-2-oxo-5-(trifluoromethyl)piperidin-3-yl)methyl)imidazo[1,2-b][1,2,4]triazin-6-yl)methyl)-1-ethyl-1H-pyrazole-5-carboxamide]	< 0.1 µM	0.1 to 1 µM
CCn1nccc1C(=O)N[C@H](c1cn2nc(C[C@H]3CC(F)(F)CNC3=O)c(C3CCOCC3)nc2n1)[C@H]1CC[C@H](C)CC1 [Compound 297]	< 0.1 µM	0.1 to 1 µM
